The values that follow come from paper PMC9481597 (Communications Biology, 2022).

One assay deals with MPro^C145A (Severe acute respiratory syndrome coronavirus 2, UniProt P0DTC1, C3408A). Type of assay: binding, SARS-CoV-2.
Assay [1] relates to MPro^WT (SARS-CoV-2 main protease, mature dimer). The settings on record: ITC, cited from earlier work; for Kd: read-out: Kd = Ki.
The test system is the same in assay [2]. Type of assay: binding.
The target of assay [3] is T1, MPro^1-199(C145A) (Severe acute respiratory syndrome coronavirus 2, UniProt P0DTC1, C3408A). Details: species or system SARS-CoV-2.
The target of assay [4] is T1, MPro^1-199(C145A). Type of assay: binding, SARS-CoV-2.

Where two headings read alike, the source gives them in different places. A value given as a limit tells only on which side of the number the result lay.

Consider `CC(C)C[C@H](NC(=O)OCc1ccccc1)C(=O)N[C@H](C=O)C[C@@H]1CCNC1=O` [GC373], for which the “Kd = Ki” value on MPro^C145A is given as “no response”. In addition, in assay [1] (GC373), the N is 0.99 ± 0.01, the ΔG is -9.4 kcal/mol, the ΔH was -6.7 ± 0.1 kcal/mol and the ΔS is reported as 9.1 cal/mol/K. Besides, the Kd in assay [1] (GC373) was 150 ± 30 nM.
As to `CC(C)(C)[C@H](NC(=O)C(F)(F)F)C(=O)N1C[C@H]2[C@@H]([C@H]1C(=O)N[C@H](C#N)C[C@@H]1CCNC1=O)C2(C)C` [NMV, nirmatrelvir], the “increase in binding affinity by nitrile warhead reacting with C145” value in assay [2] was ~ 400 times. For the same compound, on MPro^C145A, the N worked out at 0.96 ± 0.04, the ΔH entry is on record as “–3.89 ± 0.2 kcal/mol” and the ΔS is 12.6 cal/mol/K. Besides, on MPro^1-199(C145A) [3], the Kdimer.app is reported as >200 µM and the “dimer formation in SV-AUC” value was “no faster sedimenting species other than a monomer was observed”. Further, the “protein-inhibitor adduct in mass spectra” value on MPro^1-199(C145A) [4] is on record as “absence of the imidate thioester adduct”. Also, in assay [1] (NMV), the N was 0.99 ± 0.003, the ΔG entry is reported as “–11.2 kcal/mol”, the ΔH entry was “–10.75 ± 0.7 kcal/mol” and the ΔS is recorded as 1.57 cal/mol/K. In addition, in assay [1] (NMV), the Kd was 7 ± 3 nM.
